The values that follow are results of earlier work, collected in US20230355643A1, “SOLVENT DELIVERY SYSTEM FOR TOPICAL DELIVERY OF ACTIVE AGENTS” (Timber Pharmaceuticals, Inc., priority 2019, published 2023).

The conditions of this series: log10 of organic solvent (such as octanol)/aqueous solvent partition coefficient.

As to `CN(C)CCC(c1ccc(Br)cc1)c1ccccn1` (stereo not drawn) [brompheniramine], the logP is on record as 3.4.

`C=C1/C(=C\C=C2/CCC[C@]3(C)[C@@H]([C@H](C)/C=C/[C@@H](O)C4CC4)CC[C@@H]23)C[C@@H](O)C[C@@H]1O` [calcipotriol]: the lipophilicity (logP) is on record as about 3.84.

Consider `CN(C)CCC(c1ccc(Cl)cc1)c1ccccn1` (stereo not drawn) [chlorpheniramine], for which the logP is on record as about 3.38.

In the case of `CN1CCC[C@@H]1CCO[C@](C)(c1ccccc1)c1ccc(Cl)cc1` [clemastine], the logP is about 5.2.

On to `O=C(O)c1cc(-c2ccc(F)cc2F)ccc1O` [diflunisal], for which the logP is recorded as 4.44.

As for `CC(C)(C)c1ccc(C(=O)CCCN2CCC(OC(c3ccccc3)c3ccccc3)CC2)cc1` [ebastine], the logP is 6.96.

With `Clc1ccc(COC(Cn2ccnc2)c2ccc(Cl)cc2Cl)cc1` (stereo not drawn) [econazole], the logP is listed as about 5.5.

Turning to `Cc1ccc(-c2ncc(Cl)cc2-c2ccc(S(C)(=O)=O)cc2)cn1` [etoricoxib], the log partition coefficient (logP) is about 3.7.

For `CC(C(=O)O)c1cccc(Oc2ccccc2)c1` (stereo not drawn) [fenoprofen], the log partition coefficient (logP) is recorded as about 3.1.

Take `CC(C(=O)O)c1ccc(-c2ccccc2)c(F)c1` (stereo not drawn) [flurbiprofen]: the logP is about 4.16.

Regarding `COc1ccc2c(c1)c(CC(=O)O)c(C)n2C(=O)c1ccc(Cl)cc1` [indometocin], the logP is listed as about 4.27.

For the molecule `CC(C(=O)O)c1cccc(C(=O)c2ccccc2)c1` (stereo not drawn) [ketoprofen], the logP is given as ~3,12.

With `Cc1cccc(Nc2ccccc2C(=O)O)c1C` [mefenamic acid], the logP is recorded as about 5.12.

Take `Clc1ccc(COC(Cn2ccnc2)c2ccc(Cl)cc2Cl)c(Cl)c1` (stereo not drawn) [miconazole]: the logP is on record as about 6.1.

On to `Clc1ccc(CO/N=C(\Cn2ccnc2)c2ccc(Cl)cc2Cl)c(Cl)c1` [oxiconazole], for which the logP is about 5.84.

As to `CN1C(C(=O)Nc2ccccn2)=C(O)c2ccccc2S1(=O)=O` [piroxicam], the logP was about 3.06.

For the molecule `O=C(Oc1ccccc1C(=O)O)c1ccccc1O` [salsalate], the logP is listed as about 3.44.

On to `CCOC(=O)c1ccc(C#Cc2ccc3c(c2)C(C)(C)CCS3)nc1` [tazarotene, ethyl 6-[2-(4,4-dimethyl-2,3-dihydrothiochromen-6-yl)ethynyl]pyridine-3-carboxylate], for which the logP is reported as about 5.6.

As for `Cc1onc(-c2ccccc2)c1-c1ccc(S(N)(=O)=O)cc1` [valdecoxib], the lipophilicity (logP) is recorded as about 3.32.

On to ivermectin, for which the logP is about 5.83.

With texaphyrin, the logP is about 6.76.

The logP is a log measure of how a compound divides between an organic and an aqueous phase.
